Earlier results on 3 compounds are cited in patent US12343417B2, “Antiperspirant compositions” (Conopco, Inc., priority 2018, dated 2025).

Each structure is given as a SMILES string.

This data set deals with Staphylococcus epidermidis. As to conditions: 80% or greater reduction in growth over 16 to 24 hours at 37° C.
For the compound `CCO` [ethanol], the MIC result is “greater than 1 mg·ml^−1”.

Turning to `Oc1cc(Cl)ccc1Oc1ccc(Cl)cc1Cl` [triclosan, 2′,4,4′-trichloro,2-hydroxy-diphenyl ether], the minimum inhibitory concentration (MIC) is 0.01 to 10 µg/mL.

For the compound `CC(C)=CCCC(C)=CCCC(C)=CCO` [farnesol, 3,7,11-trimethyldodeca-2,6, 10-trienol], the minimum inhibitory concentration (MIC) entry was “ca. 25 μg·ml^−1”.

Broadly, the MIC is the smallest concentration in the dilution series that meets the test's criterion for growth inhibition.
